Measured values: ChEMBL document CHEMBL1221311, “The synthesis and structure-activity relationship of 4-benzimidazolyl-piperidinylcarbonyl-piperidine analogs as histamine H3 antagonists” (Bioorg Med Chem Lett, 2010)

What was measured:
Cytochrome P450 2D6 = Cytochrome P450 2D6 (Homo sapiens, UniProt P10635); assay: Inhibition of CYP2D6 in human liver microsomes; assay type: ADME, Microsome
Histamine H3 receptor = Histamine H3 receptor (Cavia porcellus, UniProt Q9JI35); assay: Displacement of [3H]Nalpha-methylhistamine from histamine H3 receptor in guinea pig brain
Cytochrome P450 3A4 = Cytochrome P450 3A4 (Homo sapiens, UniProt P08684); assay: Inhibition of CYP3A4 in human liver microsomes; assay type: ADME, Microsome
[1] = target: Histamine H3 receptor (Cavia porcellus) (UniProt Q9JI35); assay: Displacement of [3H]Nalpha-methylhistamine from histamine H3 receptor in guinea pig brain at 1 uM
Cytochrome P450 2C9 = Cytochrome P450 2C9 (Homo sapiens, UniProt P11712); assay: Inhibition of CYP2C9 in human liver microsomes; assay type: ADME, Microsome
hERG (KCNH2) = hERG (KCNH2) (Homo sapiens, UniProt Q12809); assay: Inhibition of human ERG at 10 uM
[2] = Clearance in human hepatocytes assessed per million cells; assay type: ADME, cell-based, Liver, Hepatocyte
[3] = AUC in rat at 10 mg/kg, po; assay type: ADME, organism-based; design: dose 10 mg/kg, route oral; conditions: plasma
[4] = Clearance in rat hepatocytes assessed per million cells; assay type: ADME, cell-based, Liver, Hepatocyte
Cavia porcellus = assay: Antihypertensive activity in po dosed guinea pig assessed as inhibition of (R)-alpha-methylhistamine-induced hypertension; assay type: functional

hERG (KCNH2), sequence (Q12809 whole entry): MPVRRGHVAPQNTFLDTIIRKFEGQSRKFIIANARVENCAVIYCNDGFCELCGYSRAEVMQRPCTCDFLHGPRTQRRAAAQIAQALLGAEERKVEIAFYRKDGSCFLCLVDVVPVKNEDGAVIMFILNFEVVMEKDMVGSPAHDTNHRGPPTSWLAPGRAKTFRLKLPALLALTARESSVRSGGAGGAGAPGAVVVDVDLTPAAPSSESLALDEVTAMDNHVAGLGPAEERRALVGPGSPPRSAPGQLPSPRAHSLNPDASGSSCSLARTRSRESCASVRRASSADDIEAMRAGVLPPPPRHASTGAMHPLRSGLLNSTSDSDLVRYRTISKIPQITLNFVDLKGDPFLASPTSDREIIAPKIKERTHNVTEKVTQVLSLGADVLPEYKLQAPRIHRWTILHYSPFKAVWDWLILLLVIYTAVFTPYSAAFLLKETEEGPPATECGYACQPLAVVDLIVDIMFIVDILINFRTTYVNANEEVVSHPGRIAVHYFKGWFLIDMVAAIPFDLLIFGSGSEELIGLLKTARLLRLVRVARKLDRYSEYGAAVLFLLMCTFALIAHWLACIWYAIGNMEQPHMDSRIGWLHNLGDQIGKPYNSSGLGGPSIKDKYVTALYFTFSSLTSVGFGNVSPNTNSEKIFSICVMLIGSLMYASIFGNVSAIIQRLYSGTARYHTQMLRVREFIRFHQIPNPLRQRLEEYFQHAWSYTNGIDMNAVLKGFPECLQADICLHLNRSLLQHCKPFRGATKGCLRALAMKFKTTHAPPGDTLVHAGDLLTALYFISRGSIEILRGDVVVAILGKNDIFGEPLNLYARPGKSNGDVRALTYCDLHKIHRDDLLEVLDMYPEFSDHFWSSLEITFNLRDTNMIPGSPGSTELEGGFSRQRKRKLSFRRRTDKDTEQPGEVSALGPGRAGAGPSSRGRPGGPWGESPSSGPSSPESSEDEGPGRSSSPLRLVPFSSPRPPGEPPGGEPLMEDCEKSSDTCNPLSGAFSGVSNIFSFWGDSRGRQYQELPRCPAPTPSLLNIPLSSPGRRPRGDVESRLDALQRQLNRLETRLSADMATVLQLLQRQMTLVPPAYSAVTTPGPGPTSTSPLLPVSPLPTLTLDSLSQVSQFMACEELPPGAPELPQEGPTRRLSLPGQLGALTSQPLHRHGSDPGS
Cytochrome P450 2C9, sequence (P11712 whole entry): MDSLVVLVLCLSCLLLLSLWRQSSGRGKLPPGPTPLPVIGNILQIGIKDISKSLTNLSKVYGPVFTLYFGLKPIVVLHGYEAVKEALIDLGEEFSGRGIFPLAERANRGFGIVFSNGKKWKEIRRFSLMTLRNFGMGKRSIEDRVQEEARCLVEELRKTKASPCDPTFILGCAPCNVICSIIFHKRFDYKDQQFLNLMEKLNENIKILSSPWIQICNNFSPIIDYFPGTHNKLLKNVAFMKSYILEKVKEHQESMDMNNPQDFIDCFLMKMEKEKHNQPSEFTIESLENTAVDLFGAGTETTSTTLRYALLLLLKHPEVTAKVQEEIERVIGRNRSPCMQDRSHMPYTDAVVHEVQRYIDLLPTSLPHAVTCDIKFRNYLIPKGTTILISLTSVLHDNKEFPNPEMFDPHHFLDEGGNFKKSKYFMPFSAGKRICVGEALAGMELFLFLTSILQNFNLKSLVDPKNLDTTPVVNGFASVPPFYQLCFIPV
Cytochrome P450 2D6, sequence (P10635 whole entry): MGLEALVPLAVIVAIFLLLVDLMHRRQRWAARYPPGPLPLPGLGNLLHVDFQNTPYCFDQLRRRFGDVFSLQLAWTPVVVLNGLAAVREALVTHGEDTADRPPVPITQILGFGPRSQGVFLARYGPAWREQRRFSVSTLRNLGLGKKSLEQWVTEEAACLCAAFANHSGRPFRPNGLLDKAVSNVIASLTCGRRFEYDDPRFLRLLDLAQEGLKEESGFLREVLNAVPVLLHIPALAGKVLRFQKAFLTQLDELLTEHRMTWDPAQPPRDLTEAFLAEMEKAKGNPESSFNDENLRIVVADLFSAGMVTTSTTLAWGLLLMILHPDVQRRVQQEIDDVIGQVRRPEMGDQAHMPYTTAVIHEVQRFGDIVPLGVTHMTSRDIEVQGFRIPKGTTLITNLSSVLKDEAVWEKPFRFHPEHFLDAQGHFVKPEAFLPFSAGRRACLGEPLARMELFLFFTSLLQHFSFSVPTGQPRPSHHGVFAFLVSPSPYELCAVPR
Histamine H3 receptor, sequence (Q9JI35 whole entry): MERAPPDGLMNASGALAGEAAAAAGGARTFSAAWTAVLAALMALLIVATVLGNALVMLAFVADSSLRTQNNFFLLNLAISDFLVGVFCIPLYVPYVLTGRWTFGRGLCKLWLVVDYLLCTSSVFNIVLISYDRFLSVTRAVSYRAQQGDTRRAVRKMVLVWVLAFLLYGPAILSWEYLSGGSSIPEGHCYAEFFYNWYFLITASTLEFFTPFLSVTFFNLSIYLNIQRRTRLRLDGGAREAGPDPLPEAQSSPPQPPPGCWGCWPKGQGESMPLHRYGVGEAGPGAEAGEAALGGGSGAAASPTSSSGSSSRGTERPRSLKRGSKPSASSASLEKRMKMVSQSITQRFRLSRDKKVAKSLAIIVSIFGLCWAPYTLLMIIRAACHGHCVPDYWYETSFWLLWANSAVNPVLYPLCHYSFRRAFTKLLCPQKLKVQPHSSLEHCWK
Histamine H3 receptor (Cavia porcellus), sequence (Q9JI35 whole entry): as above
Cytochrome P450 3A4, sequence (P08684 whole entry): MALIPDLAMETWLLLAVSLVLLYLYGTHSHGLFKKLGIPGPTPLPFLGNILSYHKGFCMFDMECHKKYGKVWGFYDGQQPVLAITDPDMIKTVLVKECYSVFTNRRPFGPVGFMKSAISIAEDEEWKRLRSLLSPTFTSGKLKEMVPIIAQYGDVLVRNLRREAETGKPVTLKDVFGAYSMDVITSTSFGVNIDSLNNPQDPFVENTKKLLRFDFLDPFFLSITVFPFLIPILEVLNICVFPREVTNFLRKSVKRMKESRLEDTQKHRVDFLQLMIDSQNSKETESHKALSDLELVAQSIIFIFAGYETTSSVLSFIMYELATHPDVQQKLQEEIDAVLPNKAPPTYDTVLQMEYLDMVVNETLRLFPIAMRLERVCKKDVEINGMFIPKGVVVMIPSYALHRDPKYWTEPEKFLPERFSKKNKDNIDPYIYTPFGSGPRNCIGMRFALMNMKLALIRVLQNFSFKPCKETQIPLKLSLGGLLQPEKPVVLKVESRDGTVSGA

Row | Structure (SMILES) | IC50 (Cytochrome P450 2D6) [nM] | Ki (Histamine H3 receptor) [nM] | IC50 (Cytochrome P450 3A4) [nM] | also measured
1 | O=C(C1CCN(Cc2ccncc2)CC1)N1CCC(n2c(=O)n(Cc3ccccc3Cl)c3ccccc32)CC1 | 6700 | 4.5 | 500 | –
2 | O=C(C1CCN(Cc2ccncc2)CC1)N1CCC(n2c(=O)n(CCOc3ccccc3)c3ccccc32)CC1 | 20000 | 2 | 9000 | –
3 | COc1cccc(Cn2c(=O)n(C3CCN(C(=O)C4CCN(Cc5ccncc5)CC4)CC3)c3ccccc32)c1 | 5600 | 0.3 | 200 | –
4 | O=C(C1CCN(Cc2ccncc2)CC1)N1CCN(Cc2cccc(Cl)c2)CC1 | – | 6.3 | – | –
5 | O=C(C1CCN(Cc2ccnc3ccccc23)CC1)N1CCC(n2c(=O)[nH]c3ccccc32)CC1 | – | 681 | – | –
6 | CC(C)OCCn1c(=O)n(C2CCN(C(=O)C3CCN(Cc4ccncc4)CC3)CC2)c2ccccc21 | > 20000 | 0.65 | 6000 | –
7 | Cn1cc(CN2CCC(C(=O)N3CCC(n4c(=O)[nH]c5ccccc54)CC3)CC2)c2ccccc21 | – | – | – | inhibition [1]: 30%
8 | O=C(C1CCN(Cc2ccncc2)CC1)N1CCN(c2ccccc2)CC1 | – | 40 | – | –
9 | O=C(N1CCC(n2c(=O)[nH]c3ccccc32)CC1)N1CCN(Cc2ccncc2)CC1 | – | 17 | – | –
10 | CN1CCN(C(=O)C2CCN(Cc3ccncc3)CC2)CC1 | – | 355 | – | –
11 | COc1ccc(Cn2c(=O)n(C3CCN(C(=O)C4CCN(Cc5ccncc5)CC4)CC3)c3ccccc32)cc1 | 20000 | 0.25 | 400 | –
12 | O=C(C1CCN(Cc2ccsc2)CC1)N1CCC(n2c(=O)[nH]c3ccccc32)CC1 | – | 104 | – | –
13 | O=C(NCCc1ccccc1)c1cccc(CN2CCN(C(=O)C3CCN(Cc4ccncc4)CC3)CC2)c1 | – | 27 | – | –
14 | CN(C)CCCn1c(=O)n(C2CCN(C(=O)C3CCN(Cc4ccncc4)CC3)CC2)c2ccccc21 | 1600 | – | > 30000 | IC50 (Cytochrome P450 2C9): > 20000 nM
15 | O=C(C1CCN(Cc2ccncc2)CC1)N1CCC(n2c(=O)n(Cc3cccc(Cl)c3)c3ccccc32)CC1 | 4200 | 2 | 300 | –
16 | O=C(C1CCN(Cc2ccncc2)CC1)N1CCC(O)(Cc2ccccc2)CC1 | – | 30 | – | –
17 | O=C(c1ccccc1)C1CCN(C(=O)C2CCN(Cc3ccncc3)CC2)CC1 | – | 17 | – | –
18 | O=C(C1CCN(Cc2ccncc2)CC1)N1CCN(C2CCCCC2)CC1 | – | 14 | – | –
19 | O=C(C1CCN(Cc2ccncc2)CC1)N1CCC(n2c(=O)n(Cc3ccccc3)c3ccccc32)CC1 | 9100 | 0.2 | 400 | –
20 | O=C(C1CCN(Cc2ccccn2)CC1)N1CCC(n2c(=O)[nH]c3ccccc32)CC1 | – | – | – | inhibition [1]: 40%
21 | O=c1[nH]c2ccccc2n1C1CCN(CC2CCN(Cc3ccncc3)CC2)CC1 | – | 24 | – | –
22 | CC(c1ccncc1)N1CCC(C(=O)N2CCC(n3c(=O)[nH]c4ccccc43)CC2)CC1 (configuration not stated) | – | 20 | – | –
23 | CCOCCCn1c(=O)n(C2CCN(C(=O)C3CCN(Cc4ccncc4)CC3)CC2)c2ccccc21 | > 20000 | 0.8 | 10600 | –

Row | Structure (SMILES) | IC50 (Cytochrome P450 2D6) [nM] | Ki (Histamine H3 receptor) [nM] | IC50 (Cytochrome P450 3A4) [nM] | also measured
24 | O=C(C1CCN(Cc2ccncc2)CC1)N1CCC(n2c(=O)n(CCO)c3ccccc32)CC1 | > 20000 | 0.95 | > 30000 | –
25 | O=C(C1CCN(Cc2ccncc2)CC1)N1CCC(n2c(=O)n(CCN3CCCCC3)c3ccccc32)CC1 | 3700 | 0.15 | 30000 | inhibition at 10 µM (hERG (KCNH2)): < 10%; hepatocyte CLint [2]: < 10 µL/min/1e6 cells; AUC [3]: 0.24 µM·h; hepatocyte CLint [4]: < 10 µL/min/1e6 cells; IC50 (Cytochrome P450 2C9): > 20000 nM; ED50 (Cavia porcellus): < 0.3 mg/kg
26 | O=C(C1CCN(Cc2cc[n+]([O-])cc2)CC1)N1CCC(n2c(=O)[nH]c3ccccc32)CC1 | – | 440 | – | –
27 | Cn1c(=O)n(C2CCN(C(=O)C3CCN(Cc4ccncc4)CC3)CC2)c2ccccc21 | > 20000 | 4.3 | 7500 | –
28 | O=C(C1CCN(Cc2ccncc2)CC1)N1CCC(n2c(=O)[nH]c3ccccc32)CC1 | > 20000 | 2 | 9500 | inhibition at 10 µM (hERG (KCNH2)): < 10%; hepatocyte CLint [2]: < 10 µL/min/1e6 cells; AUC [3]: 0.24 µM·h; hepatocyte CLint [4]: < 10 µL/min/1e6 cells; IC50 (Cytochrome P450 2C9): > 20000 nM; ED50 (Cavia porcellus): < 0.3 mg/kg
29 | COCCCNC(=O)c1cccc(CN2CCN(C(=O)C3CCN(Cc4ccncc4)CC3)CC2)c1 | – | 210 | – | –
30 | O=C(C1CCN(Cc2ccoc2)CC1)N1CCC(n2c(=O)[nH]c3ccccc32)CC1 | – | 204 | – | –
31 | CCOCCn1c(=O)n(C2CCN(C(=O)C3CCN(Cc4ccncc4)CC3)CC2)c2ccccc21 | > 20000 | 1.7 | 13500 | –
32 | O=C(C1CCN(Cc2ccncc2Cl)CC1)N1CCC(n2c(=O)[nH]c3ccccc32)CC1 | – | 222 | – | –
33 | O=C(CC1CCN(Cc2ccncc2)CC1)N1CCC(n2c(=O)[nH]c3ccccc32)CC1 | – | 180 | – | –
34 | O=C(C1CCN(Cc2ccncc2)CC1)N1CCC(Cc2ccccc2)CC1 | – | 5.5 | – | –
35 | O=C(C1CCN(Cc2cccnc2)CC1)N1CCC(n2c(=O)[nH]c3ccccc32)CC1 | – | 174 | – | –
36 | COCCn1c(=O)n(C2CCN(C(=O)C3CCN(Cc4ccncc4)CC3)CC2)c2ccccc21 | > 20000 | 2 | 11000 | –
37 | O=C(C1CCN(Cc2ccncc2)CC1)N1CCC(n2c(=O)n(Cc3ccc(Cl)cc3)c3ccccc32)CC1 | 5800 | 0.9 | 400 | –
38 | O=C(C1CCN(CCc2ccncc2)CC1)N1CCC(n2c(=O)[nH]c3ccccc32)CC1 | – | 537 | – | –
39 | Cn1ccc(CN2CCC(C(=O)N3CCC(n4c(=O)[nH]c5ccccc54)CC3)CC2)c1 | – | – | – | inhibition [1]: 42%
40 | O=C(c1ccncc1)N1CCC(C(=O)N2CCC(n3c(=O)[nH]c4ccccc43)CC2)CC1 | – | – | – | inhibition [1]: 11%
41 | O=C(C1CCN(Cc2ccncc2)CC1)N1CCN(Cc2ccccc2)CC1 | – | 28 | – | –
42 | CC(C)Cn1c(=O)n(C2CCN(C(=O)C3CCN(Cc4ccncc4)CC3)CC2)c2ccccc21 | 1900 | 0.4 | 1500 | –
43 | O=C(C1CCN(Cc2ccncc2)CC1)N1CCC2(CC1)C(=O)NCN2c1ccccc1 | – | 20 | – | –
44 | CN(C)CCn1c(=O)n(C2CCN(C(=O)C3CCN(Cc4ccncc4)CC3)CC2)c2ccccc21 | 10500 | 0.2 | > 30000 | inhibition at 10 µM (hERG (KCNH2)): < 10%; hepatocyte CLint [2]: < 10 µL/min/1e6 cells; AUC [3]: 0.24 µM·h; hepatocyte CLint [4]: < 10 µL/min/1e6 cells; IC50 (Cytochrome P450 2C9): > 20000 nM; ED50 (Cavia porcellus): < 0.3 mg/kg
45 | O=C(C1CCN(Cc2ccncc2)CC1)N1CCC(n2c(=O)n(CCN3CCOCC3)c3ccccc32)CC1 | > 20000 | 0.5 | 30000 | inhibition at 10 µM (hERG (KCNH2)): < 10%; hepatocyte CLint [2]: < 10 µL/min/1e6 cells; AUC [3]: 0.24 µM·h; hepatocyte CLint [4]: < 10 µL/min/1e6 cells; IC50 (Cytochrome P450 2C9): > 20000 nM; ED50 (Cavia porcellus): < 0.3 mg/kg
